“And” between values parts separate entries of the source, which are not always exact repeats. Equal entries are not always repeated.
What was measured:
[1] = target: BACE1 (Homo sapiens, UniProt P56817); experiment: P5-P5′ BACE1 inhibition assay; type: biochemical; details: cell-free; read-out: BACE1 IC50 (P5-P5′ assay; BACE1-APP)
Method: For the P5-P5′ BACE1 inhibition assay, 4 ​μL of assay buffer was added to each well, followed by 2 ​μL of BACE1 diluted in assay buffer to 7.5 ​ng/μL. Then, 2 ​μL of inhibitor, at concentrations along an 11 ​pt. two-fold dilution series starting at 10 ​μM, or 0.5 ​μM, were added to appropriate wells and incubated for 30 ​min at room temperature. For all dilutions of inhibitor, drug stock solutions of 10 ​mM in DMSO were diluted to 50 ​μM in water; subsequent dilutions were in 0.5 ​% DMSO. Afterwards, 2 ​μL of fluorogenic P5-P5′ BACE1 substrate, diluted to 50 ​μM in assay buffer, were added to each well and the signal generated was read every 30 ​min at 25 ​°C for 2 ​h.

[2] = target: BACE1 cleavage of MBP-APPC125 substrate (Homo sapiens, UniProt P56817); experiment: MBP-APPC125 BACE1 cleavage assay; type: biochemical; details: in words
Method: (-)/peak 2 enantiomers. […] Specifically, 2 μL of the Acc-Mix was loaded into each well and incubated for 1-hour at RT, then 2 μL of Donor-Mix was added and incubated for 30 min at room RT protected from light. The signal was quantified using an Envision Plate reader (Fig S6). Testing of FA[…](-) in HEK-APP-GFP cells HEK293T cells stably transfected with human APP (P05067-1, […]) tagged with Green Fluorescent Protein (GFP) on the N-terminal (HEK-APP; AcroBiosystems cat# CHEK-ATP081) were cultured according to manufacturer recommendations. […] Cells were then washed with PBS and imaged at 37 °C and 5% CO2 using a BioTek Lionheart FX microscope using brightfield and green fluorescence filters with a 20X objective. Images were then processed with Gen5 software to obtain the total intensity of the GFP channel (469/525) and the mean GFP channel intensity.(Fig S7, S8) Supplementary Figures Figure S1. BACE inhibition dose-response and pharmacokinetics for FAH1 and FAH3. (a) IC50 curves for FAH1, 3, 17 and 65 in the P5-P5' assay described in main manuscript. […] μM, respectively. […] 150 FAH-65 BA C E-IV 100 50 0 50 10 0. 1 [ ] µM Figure S2. FAH65 in the BACE2 assay. […] 6 (1 picture or pasted object on this page, not shown here)

[3] = target: T1, BACE1 cleavage of NRG1 (Homo sapiens, UniProt P56817); experiment: SEAP-NRG assay; type: cell-based; details: SEAP-NRG1, HEK293
T1 construct: with or without full-length wild-type BACE1; expressed in transfected cells; host or cells: HEK293
Method: A cDNA construct encoding a human placental secreted alkaline phosphatase (SEAP)-NRG1 (pAPtag5-NRG1-β1) fusion protein was transfected in human embryonic kidney (HEK293) cells in a 6-well format with or without full-length wild-type BACE1 using Lipofectamine 2000 (Invitrogen) as described previously [27]. After transfection, the medium was replaced with DMEM containing the test compound at 10, 5, 1, 0.1, and 0.01 ​μM as well as 10 ​% heat-inactivated fetal bovine serum (FBS), then incubated for 24 ​h. SEAP activity was measured in the conditioned medium.

[4] = target: T2, BACE1 cleavage of PSGL1 (Homo sapiens, UniProt P56817); experiment: PSGL1 assay (SEAP-PSGL1); type: cell-based; details: SEAP-PSGL1, HEK293
T2 construct: with or without full-length wild-type BACE1; expressed in transfected cells; host or cells: HEK293
Method: A cDNA construct encoding a human placental secreted alkaline phosphatase (SEAP)-PSGL1 (pAPtag5-PSGL1-β1) fusion protein was transfected in human embryonic kidney (HEK293) cells in a 6-well format with or without full-length wild-type BACE1 using Lipofectamine 2000 (Invitrogen). After 6–8 ​h transfection, the medium was replaced with DMEM containing the test compound at 10, 5, 1, 0.1 and 0.01 ​μM and 10 ​% heat-inactivated fetal bovine serum (FBS), and incubated for 24 ​h. SEAP activity was measured in the conditioned medium.

[5] = target: T3, cathepsin D (CatD) (Homo sapiens, UniProt P07339); experiment: Cathepsin D activity assay; type: biochemical; details: in words
T3 construct: purchased R&D Systems 1014-AS
Method: The effects of candidate ASBIs on cathepsin D (CatD) activity was assessed using the R&D Systems CatD activity assay kit (Catalog #: 1014-AS and ES001) according to the manufacturer's instructions. For the assay, 4 μL of assay buffer was added to each well, followed by 2 μL of CatD diluted in assay buffer to 5 ng/uL. Then, 2 μL of inhibitor, at concentrations along an 11 pt. two-fold dilution series starting at 50 μM, were added to appropriated wells and incubated for 30 min at room temperature. For all dilutions of inhibitor, drug stock solutions of 10 mM in DMSO were diluted to 50 μM in water; subsequent dilutions were in 2.5 % DMSO. Afterwards, 2 μL of fluorogenic CatD substrate, diluted to 50 μM in assay buffer, were added to each well, after which the signal generated was read every 30 min at 25 °C for 1hr.

[6] = tested on: CHO-7W cells expressing wildtype human APP; experiment: sAPPβ and Aβ1-42 production in CHO-7W cells (AlphaLISA); type: cell-based, Chinese hamster; details: 1 μM, in words
Method: Culture Media was collected and frozen. Media was assayed using an AlphaLISA for Aβ1-42 (Perkin Elmer catalog # AL276C), sAPPα (R&D Systems catalog # AF1168 conjugated with Perkin Elmer acceptor beads catalog # 6772001 + 2B3 antibody from IBL catalog # 11088 biotinylated), and sAPPβ (Perkin Elmer AL276-acceptor + IBL catalog # 18957 biotinylated). For the assay, 2 μL of diluted or undiluted sample was added to a 384 well plate, followed by 2 μL of the respective antibody mixture. This was incubated for 1 h. Afterwards, 2 μL of donor beads was added to each well, followed by a 30-min incubation in the dark, after which the signal was read.

[7] = target: eAPP (Homo sapiens, UniProt P05067); experiment: APP binding by surface plasmon resonance (SPR)
Chain of eAPP (P05067 18-701): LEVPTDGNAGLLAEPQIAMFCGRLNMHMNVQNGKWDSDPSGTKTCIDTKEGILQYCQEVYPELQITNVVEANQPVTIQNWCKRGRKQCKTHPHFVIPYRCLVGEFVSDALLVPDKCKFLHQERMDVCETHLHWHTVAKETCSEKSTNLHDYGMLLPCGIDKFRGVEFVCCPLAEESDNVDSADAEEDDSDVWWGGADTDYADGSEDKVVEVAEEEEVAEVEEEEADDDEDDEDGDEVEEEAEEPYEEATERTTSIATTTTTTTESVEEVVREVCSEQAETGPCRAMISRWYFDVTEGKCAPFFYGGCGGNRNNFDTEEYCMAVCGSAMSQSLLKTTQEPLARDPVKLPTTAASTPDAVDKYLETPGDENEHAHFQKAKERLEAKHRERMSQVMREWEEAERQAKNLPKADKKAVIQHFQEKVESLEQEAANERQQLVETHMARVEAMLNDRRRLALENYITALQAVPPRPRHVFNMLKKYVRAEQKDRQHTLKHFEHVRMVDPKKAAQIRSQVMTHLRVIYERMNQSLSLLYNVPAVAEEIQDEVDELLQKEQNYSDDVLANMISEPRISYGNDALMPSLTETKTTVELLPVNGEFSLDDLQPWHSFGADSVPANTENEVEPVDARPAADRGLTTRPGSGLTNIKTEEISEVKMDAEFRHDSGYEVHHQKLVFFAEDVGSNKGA
Method: The interaction of FAH3, 17 and 65 were evaluated using the SPR protocol described previously in Descamps et al., [26].
For these pilot experiments eAPP as described in Descamps et al (26) is crosslinked to a the CM5 Biacore chip. FAH3 at various concentration was used in the flow through the chip, and the plasmon resonance signal was determined using a Biacore T100. The raw data uncorrected for contribution of running buffer is fit to equilibrium binding data and corrected for the contribution of the running buffer to
For FAH17 and FAH65-APP binding was determined using SPR to determine competition with BSA that non-specifically binds to the eAPP-Biacore chip.

Chain of BACE1 (P56817 46-501): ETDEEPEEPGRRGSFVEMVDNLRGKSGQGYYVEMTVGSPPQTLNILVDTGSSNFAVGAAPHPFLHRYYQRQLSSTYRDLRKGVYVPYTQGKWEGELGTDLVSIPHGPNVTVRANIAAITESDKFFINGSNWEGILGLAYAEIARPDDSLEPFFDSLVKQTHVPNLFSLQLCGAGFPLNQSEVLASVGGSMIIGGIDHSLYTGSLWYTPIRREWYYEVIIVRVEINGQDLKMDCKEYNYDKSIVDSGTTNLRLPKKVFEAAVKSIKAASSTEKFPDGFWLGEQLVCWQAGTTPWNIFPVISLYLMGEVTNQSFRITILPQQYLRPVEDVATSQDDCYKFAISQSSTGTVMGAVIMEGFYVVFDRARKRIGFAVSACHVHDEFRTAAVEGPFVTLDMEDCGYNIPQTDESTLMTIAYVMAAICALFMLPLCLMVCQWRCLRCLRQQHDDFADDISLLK
Chain of BACE1 cleavage of MBP-APPC125 substrate (P56817 46-501): as above
T2 sequence (P56817 46-501): as above
T1 sequence (P56817 46-501): as above
T3 sequence (P07339 65-412): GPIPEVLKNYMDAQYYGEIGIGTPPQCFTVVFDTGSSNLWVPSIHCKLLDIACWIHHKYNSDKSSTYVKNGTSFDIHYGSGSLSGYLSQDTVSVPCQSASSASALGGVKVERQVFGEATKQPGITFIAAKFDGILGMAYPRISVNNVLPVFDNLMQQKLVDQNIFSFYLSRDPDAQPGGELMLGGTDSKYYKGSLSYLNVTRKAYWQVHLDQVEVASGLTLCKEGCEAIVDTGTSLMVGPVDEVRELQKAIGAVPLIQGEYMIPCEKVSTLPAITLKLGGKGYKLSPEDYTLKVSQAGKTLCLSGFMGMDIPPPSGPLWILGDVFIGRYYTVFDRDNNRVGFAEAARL

SMILES	IC50 [1]	inhibition of BACE1 cleavage of MBP-APPC125 [2]	EC50 [3]	EC50 [4]	inhibition of cathepsin D activity [5]	sAPPβ production ([6]; 24-h treatment)	Aβ1-42 production [6]	Kd [7]
O=C1NC(=O)C(c2ccccc2)(c2ccccc2)N1 [phenytoin, reference compound]	> 200 µM	weak inhibitor	–	–	–	–	–	–
Cc1cc(C2(c3cccc(F)c3)N=C(N)N(C)C2=O)ccc1OC(F)F (stereo not drawn) [FAH17]	~0.3 µM and 0.3 µM	–	> 10 µM	> 10 µM	Neither analog significantly inhibited	decrease	decrease	~3.3 µM
